In this assay the target is MAO-B (Rattus norvegicus, UniProt P19643). The experiment in a line: biochemical. Here is the method: The crude homogenate was centrifuged at 2220 rpm for 10 minutes at +4° C. and the supernatant recovered. The pellet was homogenized and centrifuged again. The two supernatants were pooled and centrifuged at 9250 rpm for 10 minutes. The pellet was resuspended in fresh buffer and centrifuged at 11250 rpm for 10 minutes at +4° C. The resulting pellet was stored at −80° C.
The mitochondrial pellet (500 μg protein) was resuspended in 0.1 M phosphate buffer (pH 7.4). 500 μl of the suspension were added to a 50 μl solution of the test compound or buffer, and incubated for 30 min at 37° C. (preincubation) then the substrate (50 μl) was added. […] (^14C-PEA, 0.5 μM).
The amount of neutral and/or acidic metabolites formed as a result of MAO activity was obtained by measuring the radioactivity of the eluate.
The activity of MAO in the sample, corresponding to a percentage of radioactivity compared with the control activity in the absence of the inhibitor, was expressed as nmoles of substrate transformed/mg protein/min.

Sequence of MAO-B (P19643 whole entry): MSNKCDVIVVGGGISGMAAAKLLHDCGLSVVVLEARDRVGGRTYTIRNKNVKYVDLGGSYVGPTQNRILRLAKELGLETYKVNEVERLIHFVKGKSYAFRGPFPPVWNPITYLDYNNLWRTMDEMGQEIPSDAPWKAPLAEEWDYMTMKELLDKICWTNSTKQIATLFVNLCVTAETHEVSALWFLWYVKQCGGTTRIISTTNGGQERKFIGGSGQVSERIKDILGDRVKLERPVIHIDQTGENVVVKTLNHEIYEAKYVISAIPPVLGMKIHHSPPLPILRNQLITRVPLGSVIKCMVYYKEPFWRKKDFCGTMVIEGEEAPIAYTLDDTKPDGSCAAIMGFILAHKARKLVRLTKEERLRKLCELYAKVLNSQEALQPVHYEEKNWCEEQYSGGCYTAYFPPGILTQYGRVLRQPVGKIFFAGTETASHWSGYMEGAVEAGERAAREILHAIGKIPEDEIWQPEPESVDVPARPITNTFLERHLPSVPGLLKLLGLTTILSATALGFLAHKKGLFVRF

In turn, `C[C@H](NCc1ccc(OCc2ccccc2F)cc1)C(N)=O` [Ralfinamide methanesulfonate, (S)-(+)-2-[4-(2-fluorobenzyloxy)benzylamino]propanamide] registered a concentration for half-maximal inhibition (IC50) of 132 nM.

The record behind these values is patent publication US8445539B2, “Alpha-aminoamide derivatives useful in the treatment of psychiatric disorders” (priority 2007, dated 2013).
